Experiments:
Format in all cases: biochemical
Thrombin = Thrombin (Homo sapiens (Human), UniProt P00734); assay: Dose response assay for protease inhibitors: thrombin; settings: selectivity, thrombin over Factor XIa
Method: (§1) • Assay buffer: 20 mM Hepes, pH 7.4; 150 mM NaCl; 0.02% Tween 20 • Compounds: 10 mM stocks in DMSO • Substrate: 20 mM Glp-Pro-Arg-AMC, 25 mg/2.3 mL H2O (store at +4° C.) [Factor XIa, thrombin, and trypsin] • 20 mM Pro-Phe-Arg-AMC (Bachem I-1295), 25 mg/2.2 mL H2O • or Boc-Leu-Gly-Arg-AMC (Bachem I-1105), 25 mg/2.07 mL H2O • (store at +4° C.) [Factor Xa] • Enzyme: Factor XIa; 0.25 μM in 50% glycerol (20 μg/mL) • Trypsin; 0.2 μM in 50% glycerol (4.8 μg/mL) • Thrombin; 0.2 μM in 50% glycerol (7.34 μg/mL) • Factor Xa; 0.2 μM in 50% glycerol (9.2 μg/mL) • These stocks are aliquoted (˜100 μL/aliquot) and stored at −20° C. Methods: • 1. Dilute the substrate to 100 μM in assay buffer (30 μL/6 mL). The enzyme is diluted to 0.5 nM just prior to use (12 μL/6 mL for Factor XIa; 15 μL/6 mL for all of the rest.) • 2. Pipette 50 μL of substrate into each well of the 96 well (12×8) microtiter plate. (Column 1 is used as the 100% activity control and receives no compound, and Column 12 is the blank and receives no enzyme.) Add an additional 46 μL to column 2. • 3. Pipette 4 μL of each compound into the appropriate well in column 2 of the plate (unknowns assayed in triplicate, standard assayed in duplicate). The final compound concentration will be […] of the stock. • 4. Serially two-fold dilute the compound by mixing the sample in column 2, removing 50 μL to the next well (column 3), mix and remove to column 4, etc. until column 11. After mixing column 11, remove 50 μL and discard. • 5. Pipette 50 μL of buffer into column 12. Initiate the reaction by adding 50 μL of enzyme solution to each well of columns 1-11 as rapidly as possible. • 6. Read the plate in a spectrophotometer (SpectraMax) at 30° C., wherein each well is measured every 60 s for 30 min. For Factor Xa assays, each well is measured every 1 min for a total of 60 min. • 7. For Factor XIa assays, the compounds are assayed, in duplicate, at 3 different starting concentrations, 20, 2, and 0.2 μM; 1:10, 1:100, and 1:1000 dilution of 10 mM stock or at 2, 0.2, and 0.02 μM; 1:100, 1:1000, and 1:10,000 dilution of 10 mM stock. Data for each concentration are combined for graphing and data fitting. • 8. Data can be used both for estimation of IC50 and for estimation of Kon.

Trypsin = assay: Dose response assay for protease inhibitors: trypsin; settings: selectivity, trypsin over Factor XIa
Method: as §1

Factor XIa = Factor XIa (Homo sapiens (Human), UniProt P03951); assay: Factor XIa enzyme inhibition assay (dose response, fluorogenic AMC substrate); settings: read-out: hFXIa IC50
Summary of the method: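 Human FXIa at 0.25 nM final with 50 μM final PyroGlu-Pro-Arg-AMC in 20 mM Hepes pH 7.4, 150 mM NaCl, 0.02% Tween 20. Two-fold serial compound dilutions; fluorescence read every minute for 30 min at 30° C. IC50 from a four-parameter Hill fit.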

Factor Xa = Factor Xa (Homo sapiens (Human), UniProt P00742); assay: Dose response assay for protease inhibitors: Factor Xa; settings: selectivity, Factor Xa over Factor XIa
Method: as §1

Sequence of Factor Xa (P00742 235-488): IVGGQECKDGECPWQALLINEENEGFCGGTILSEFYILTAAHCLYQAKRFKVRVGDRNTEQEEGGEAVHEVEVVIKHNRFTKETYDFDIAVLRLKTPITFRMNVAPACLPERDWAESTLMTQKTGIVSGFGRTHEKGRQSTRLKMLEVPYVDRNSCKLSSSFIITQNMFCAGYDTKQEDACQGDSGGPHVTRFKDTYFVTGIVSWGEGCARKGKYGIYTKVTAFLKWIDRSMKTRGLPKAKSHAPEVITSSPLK
Sequence of Factor Xa (P00742 41-179 partner): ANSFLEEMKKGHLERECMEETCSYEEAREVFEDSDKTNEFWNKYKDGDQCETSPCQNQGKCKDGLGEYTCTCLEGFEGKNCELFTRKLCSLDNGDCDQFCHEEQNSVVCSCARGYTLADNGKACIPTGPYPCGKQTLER
Sequence of Factor XIa (P03951 388-625): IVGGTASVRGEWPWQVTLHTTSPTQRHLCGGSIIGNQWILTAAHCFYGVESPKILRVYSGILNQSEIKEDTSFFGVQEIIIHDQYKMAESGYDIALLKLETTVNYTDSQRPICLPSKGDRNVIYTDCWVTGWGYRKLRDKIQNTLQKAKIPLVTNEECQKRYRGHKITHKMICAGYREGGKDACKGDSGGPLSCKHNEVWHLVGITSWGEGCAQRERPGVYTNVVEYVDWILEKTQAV
Sequence of Factor XIa (P03951 19-387 partner): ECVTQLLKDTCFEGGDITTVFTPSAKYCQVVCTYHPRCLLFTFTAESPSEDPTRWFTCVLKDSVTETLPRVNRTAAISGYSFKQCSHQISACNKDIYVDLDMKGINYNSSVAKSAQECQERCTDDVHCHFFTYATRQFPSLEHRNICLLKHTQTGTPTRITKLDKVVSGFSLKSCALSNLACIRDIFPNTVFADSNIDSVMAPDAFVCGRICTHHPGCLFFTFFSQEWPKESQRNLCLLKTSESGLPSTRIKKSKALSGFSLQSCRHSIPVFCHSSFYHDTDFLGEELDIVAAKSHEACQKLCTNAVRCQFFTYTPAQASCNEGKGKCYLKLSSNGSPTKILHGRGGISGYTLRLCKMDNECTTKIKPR

Structure (SMILES)	Ratio: Thrombin/FXIa (Thrombin)	Ratio: Trypsin/FXIa (Trypsin)	IC50 (Factor XIa) [nM]	Ratio: FXa/FXIa (Factor Xa)
CC[C@@H](NC(=O)N1C(=O)[C@H](Cc2cc(C)nc(N)c2)[C@H]1C(=O)N(C)c1ccn(C)n1)c1cc(C)ccc1F [Compound 1-143, (2S,3R)-3-((2-amino-6-methylpyridin-4-yl)methyl)-N2 (1-methyl-1H-pyrazol-3-yl)-N1-((R)-1-(2-fluoro-5-methylphenyl)propyl)-N2-methyl-4-oxoazetidine-1,2-dicarboxamide]	H (“H” indicates 101-1000)	G (“G” indicates 1-100)	< 10	I (“I” indicates > 500)
CC[C@@H](NC(=O)N1C(=O)[C@H](Cc2ccnc(N)c2)[C@H]1C(=O)N(C)c1ccn(C)n1)c1cc(F)ccc1F [Compound 1-123, (2S,3R)-3-((2-aminopyridin-4-yl)methyl)-N2-(1-methyl-1H-pyrazol-3-yl)-N1-((R)-1-(2,5-difluorophenyl)propyl)-N2-methyl-4-oxoazetidine-1,2-dicarboxamide]	H (“H” indicates 101-1000)	G (“G” indicates 1-100)	< 10	I (“I” indicates > 500)
CC[C@@H](NC(=O)N1C(=O)[C@H](Cc2cc(C)nc(N)c2)[C@H]1C(=O)N(C)c1nccn1C)c1ccc(C)cc1 [Compound 1-107, (2S,3R)-3-((2-amino-6-methylpyridin-4-yl)methyl)-N2-(1-methyl-1H-imidazol-2-yl)-N1-((R)-1-(4-methylphenyl)propyl)-N2-methyl-4-oxoazetidine-1,2-dicarboxamide]	H (“H” indicates 101-1000)	G (“G” indicates 1-100)	10 to 100	I (“I” indicates > 500)
CC[C@@H](NC(=O)N1C(=O)[C@H](Cc2cc(C)nc(N)c2)[C@H]1C(=O)N(C)c1ccnn1C)c1cc(F)ccc1C [Compound 1-162, (2S,3R)-3-((2-amino-6-methylpyridin-4-yl)methyl)-N2-(1-methyl-1H-pyrazol-5-yl)-N1-((R)-1-(5-fluoro-2-methylphenyl)propyl)-N2-methyl-4-oxoazetidine-1,2-dicarboxamide]	I (“I” indicates > 500)	G (“G” indicates 1-100)	< 10	I (“I” indicates > 500)
CC[C@@H](NC(=O)N1C(=O)[C@H](Cc2cc(C)nc(NC)c2)[C@H]1C(=O)N(C)c1cn(C)cn1)c1ccccc1 [Compound 1-72, (2S,3R)-3-((2-methylamino-6-methylpyridin-4-yl)methyl)-N2-(1-methyl-1H-imidazol-4-yl)-N1-((R)-1-phenylpropyl)-N2-methyl-4-oxoazetidine-1,2-dicarboxamide]	G (“G” indicates 1-100)	G (“G” indicates 1-100)	10 to 100	H (“H” indicates 101-1000)
CC[C@@H](NC(=O)N1C(=O)[C@H](Cc2cc(C)nc(N)c2)[C@H]1C(=O)N(C)c1cnn(C)c1)c1cc(F)ccc1F [Compound 1-182, (2S,3R)-3-((2-amino-6-methylpyridin-4-yl)methyl)-N2-(1-methyl-1H-pyrazol-4-yl)-N1-((R)-1-(2,5-difluorophenyl)propyl)-N2-methyl-4-oxoazetidine-1,2-dicarboxamide]	H (“H” indicates 101-1000)	G (“G” indicates 1-100)	< 10	I (“I” indicates > 500)
CC[C@@H](NC(=O)N1C(=O)[C@H](Cc2ccnc(N)c2)[C@H]1C(=O)N(C)c1ccn(C)n1)c1cc(F)ccc1C [Compound 1-135, (2S,3R)-3-((2-aminopyridin-4-yl)methyl)-N2-(1-methyl-1H-pyrazol-3-yl)-N1-((R)-1-(5-fluoro-2-methylphenyl)propyl)-N2-methyl-4-oxoazetidine-1,2-dicarboxamide]			< 10	
CC[C@@H](NC(=O)N1C(=O)[C@H](Cc2cc(C)nc(N)c2)[C@H]1C(=O)N(C)c1ccnn1C)c1cccc(C)c1C [Compound 1-149, (2S,3R)-3-((2-amino-6-methylpyridin-4-yl)methyl)-N2-(1-methyl-1H-pyrazol-5-yl)-N1-((R)-1-(2,3-dimethylphenyl)propyl)-N2-methyl-4-oxoazetidine-1,2-dicarboxamide]			10 to 100	
CC[C@@H](NC(=O)N1C(=O)[C@H](Cc2ccnc(N)c2)[C@H]1C(=O)N(C)c1ccn(C)n1)c1ccccc1F [Compound 1-133, (2S,3R)-3-((2-aminopyridin-4-yl)methyl)-N2-(1-methyl-1H-pyrazol-3-yl)-N1-((R)-1-(2-fluorophenyl)propyl)-N2-methyl-4-oxoazetidine-1,2-dicarboxamide]			10 to 100	
CC[C@@H](NC(=O)N1C(=O)[C@H](Cc2ccnc(N)c2)[C@H]1C(=O)N(C)c1nccn1C)c1ccc(C)c(C)c1C [Compound 1-209, (2S,3R)-3-((2-aminopyridin-4-yl)methyl)-N2-(1-methyl-1H-imidazol-2-yl)-N1-((R)-1-(2,3,4-trimethylphenyl)propyl)-N2-methyl-4-oxoazetidine-1,2-dicarboxamide]			< 10	
CC[C@@H](NC(=O)N1C(=O)[C@H](Cc2ccnc(N)c2)[C@H]1C(=O)N(C)c1ccnn1C)c1cc(F)ccc1C [Compound 1-219, (2S,3R)-3-((2-aminopyridin-4-yl)methyl)-N2-(1-methyl-1H-pyrazol-5-yl)-N1-((R)-1-(5-fluoro-2-methylphenyl)propyl)-N2-methyl-4-oxoazetidine-1,2-dicarboxamide]			< 10	
CC[C@@H](NC(=O)N1C(=O)[C@H](Cc2ccnc(N)c2)[C@H]1C(=O)N(C)c1nccn1C)c1ccc(C)c(F)c1F [Compound 1-192, (2S,3R)-3-((2-aminopyridin-4-yl)methyl)-N2-(1-methyl-1H-imidazol-2-yl)-N1-((R)-1-(2,3-difluoro-4-methylphenyl)propyl)-N2-methyl-4-oxoazetidine-1,2-dicarboxamide]			< 10	
CC[C@@H](NC(=O)N1C(=O)[C@H](Cc2ccnc(N)c2)[C@H]1C(=O)N(C)c1nccn1C)c1ccc(Cl)cc1C [Compound 1-118, (2S,3R)-3-((2-aminopyridin-4-yl)methyl)-N2-(1-methyl-1H-imidazol-2-yl)-N1-((R)-1-(4-chloro-2-methylphenyl)propyl)-N2-methyl-4-oxoazetidine-1,2-dicarboxamide]			< 10	
CC[C@@H](NC(=O)N1C(=O)[C@H](Cc2cc(C)nc(N)c2)[C@H]1C(=O)N(C)c1nccn1C)c1cc(C)ccc1C [Compound 1-108, (2S,3R)-3-((2-amino-6-methylpyridin-4-yl)methyl)-N2-(1-methyl-1H-imidazol-2-yl)-N1-((R)-1-(2,5-dimethylphenyl)propyl)-N2-methyl-4-oxoazetidine-1,2-dicarboxamide]			10 to 100	
CC[C@@H](NC(=O)N1C(=O)[C@H](Cc2ccnc(N)c2)[C@H]1C(=O)N(C)c1ccn(C)n1)c1cccc(Cl)c1C [Compound 1-138, (2S,3R)-3-((2-aminopyridin-4-yl)methyl)-N2-(1-methyl-1H-pyrazol-3-yl)-N1-((R)-1-(3-chloro-2-methylphenyl)propyl)-N2-methyl-4-oxoazetidine-1,2-dicarboxamide]			< 10	

Reference: US11691962B2 (eXIthera Pharmaceuticals, Inc., priority 2018, dated 2023)
